Read-outs that look alike come from different tables or passages of the source.
How the values were obtained:
[1] = test system: Carrot (Daucus carota subsp. sativus); assay: Activation test 3 (root growth, plant size after harvest); type: in vivo; conditions: 0.24% (w/w) malic acid, 0.06% (w/w) acetic acid, or both, pH=6.0; 50 mL at root 3 times; harvest 90 days after first irrigation; Welch test
Procedure: Carrot (Daucus carota subsp. sativus of the family Apiaceae) budded from seeds direct-seeded in a farm field was used.
During the test period, each plant was watered by natural rainfall.
2 weeks after budding, a seedling having four to five true leaves was irrigated, at its root, with 50 mL of each testing solution. 3 weeks and 6 weeks after the initial irrigation treatment, the plant was irrigated again with 50 mL of the testing solution (irrigated a total of 3 times).
90 days after the first irrigation treatment, plant individuals were harvested, and aerial parts (leaf parts) were cut off to prepare edible root parts. Then, the wet weights of 100 individuals per test group were measured. Top 10% and bottom 10% of the data were removed, and the average weight and standard deviation of the plants in each test group were calculated as to the remaining 80 individuals.

[2] = test system: Spinach (Spinacia oleracea); assay: Activation test 2 (plant growth, plant size after harvest); type: in vivo; conditions: pH=6.0, 50 mL at root 3 times, harvest 45 days after first irrigation
Procedure: Spinach (Spinacia oleracea of the family Amaranthaceae) budded from seeds direct-seeded in a farm field in a plastic greenhouse was used. During the test period, each plant was watered twice a day at 6 a.m. and 4 p.m. from an automatically controlled irrigation system. 2 weeks after budding, a seedling having three to five true leaves was irrigated, at its root, with 50 mL of each testing solution given below. 2 weeks and 4 weeks after the initial irrigation treatment, the plant was irrigated again with 50 mL of the testing solution (irrigated a total of 3 times). […] The average weight and standard deviation of the plants in each test group were calculated. […] The results of the Welch test in these and following drawings mean *: p<0.05 and **: p<0.01. The testing solutions used are as described below. Testing solutions prepared in the same way were also used in activation tests 3 to 6 given below. […] Malic acid treatment group 2: 0.24% (w/w) aqueous malic acid solution Acetic acid treatment group 2: 0.06% (w/w) aqueous acetic acid solution Treatment group 2: aqueous solution containing 0.24% (w/w) malic acid and 0.06% (w/w) acetic acid Each solution was adjusted to pH=6.0 using KOH.

[3] = test system: aromaticus (Plectranthus amboinicus); assay: Activation test 4 (induction of roots); conditions: cuttings dipped in 200 mL testing solution (0.06% (w/w) acetic acid, or 0.24% (w/w) malic acid and 0.06% (w/w) acetic acid, pH=6.0), raised 2 weeks
[4] = test system: Swamp chrysanthemum (Leucanthemum paludosum); assay: Activation test 6 (induction and growth of flower buds); type: in vivo; conditions: for number of new flower buds compared with water treatment group 6: pots dipped in 200 mL testing solution 24 hours, apical buds cut off, counted 3 weeks later, 0.24% (w/w) malic acid, 0.06% (w/w) acetic acid, or both, pH=6.0
Description: Swamp chrysanthemum (Leucanthemum paludosum of the family Compositae) raised in a 9 cm pot was used. […] All apical buds of the plants thus treated with the solution were cut off (pinched) with scissors.

spinach = assay: Activation test 5 (maintenance of freshness and water after harvest); type: in vivo, Spinacia oleracea; conditions: 100 mL/plant at root on the day before harvest, humidity 40%
Procedure: 18 hours later, the aerial part was harvested by cutting at the root with a cutter, and 5 bunches were wrapped with a piece of newspaper having the same area (30 cm×45 cm) among samples. Four types in total of test groups (20 individuals in total) including all the test groups were placed in a plastic bag (25 cm×[…]), positioned in an upright posture with the mouth of the bag opened, and stored in a refrigerator of 4° C. with a humidity of 40%. Time-dependent change in the weight of each individual was measured with a weight scale. […] The mean and standard deviation of change in the weights of 20 individuals at each time per group were determined.

[5] = test system: stem lettuce (Lactuca sativa L.); conditions: humidity 40%; for survival rate: 50 mL of 10 mM aqueous acetic acid solution at root, 24 hours, then 42° C., continuous light, no water supply
Procedure: (§1) A plant that was irrigated, at its root, with 50 mL of water and allowed to absorb it over 24 hours was assigned to water treatment group 1, and a plant that was irrigated, at its root, with 50 mL of a 10 mM aqueous acetic acid solution and allowed to absorb it over 24 hours was assigned to acetic acid treatment group 1.
(§2) The survival rate was calculated by counting the number of stem lettuce seedlings that were not killed by firing.

[6] = test system: Peperomia (Peperomia albovittata); assay: Activation test 1 (induction and growth of flower buds); conditions: 50 mL at root, 24 hours: 20 mM acetic acid alone, or 20 mM acetic acid and 0.075 μM malic acid, 22° C., humidity 40%, left standing 3 weeks
[7] = test system: tomato (breed: Momotaro, Solanum lycopersicum); conditions: for survival rate: 50 mL at root, 24 hours: 20 mM acetic acid alone, or 10 mM acetic acid and 10 mM malic acid, then 50° C., humidity 10%, no water supply
Procedure: as §1, with “3,” for “1,”, “20” for “10”, “3. Also, a plant that was irrigated, at its root, with 50 mL of an aqueous solution containing 10 mM acetic acid and 10 mM malic acid and allowed to absorb it over 24 hours was assigned to treatment group 3.” for “1.”
as §2

CC(=O)O [acetic acid]
significant difference in wet root weight after harvest against water treatment group 3 [1]: No significant difference
increase in wet weight ([2]; against water treatment group 2, 0.06% (w/w) acetic acid, or 0.24% (w/w) malic acid and 0.06% (w/w) acetic acid, 20 individuals): 122%
new roots confirmed [3]: New roots were confirmed in neither
new formation and formation of apical buds and flower buds ([4]; conclusion of activation test 6): can promote the new formation and formation of apical buds and flower buds
number of new flower buds compared with water treatment group 6 [4]: increase in the number of flower buds
effect of maintaining the freshness of plants after harvest (spinach; stored at 4° C.): effect of maintaining the freshness of plants after harvest was shown
reduction preventing effect on decrease in water content compared with water treatment group 5 (spinach; after 96 hours at 4° C., 0.06% (w/w) acetic acid, or with 0.24% (w/w) malic acid): 7.1%
water retaining effect compared with water treatment group 5 and malic acid treatment group 5 (spinach; at and after 12 hours from the start of refrigeration, 4° C.): marked water retaining effect
ability of plants to tolerate drying at a high temperature ([5]; 10 mM acetic acid, 42° C., compared with water treatment group 1): potentiated the ability of plants to tolerate drying at a high temperature
survival rate ([5]; left standing 5 days): 100%
survival rate ([5]; still standing 7 days): 100%
number of flower buds after flowering that grew into 3 cm or larger ([6]; water treatment group 0): 0
number of flower buds formed before flowering ([6]; water treatment group 3): 5
survival rate ([7]; still standing 3 days): 100%
survival rate ([7]; still standing 4 days): 0%
ability to tolerate drying at a high temperature (order of groups) ([7]; order: acetic acid+malic acid treatment group 3, acetic acid treatment group 3, water treatment group 3): more potentiated

O=C(O)CC(O)C(=O)O (centres unmarked) [malic acid]
significant difference in wet root weight after harvest against water treatment group 3 [1]: No significant difference
significant difference in wet weight against water treatment group 2 ([2]; 0.24% (w/w) aqueous malic acid solution, Welch test): No significant difference
number of new flower buds compared with water treatment group 6 [4]: No significant difference
significant difference in the rate of decrease in wet weight against water treatment group 5 (spinach; 0.24% (w/w) malic acid, pH=6.0, stored at 4° C.): No significant difference
